“Also recorded” adds a separate entry of the source.
How the values were obtained:
HDAC2 = HDAC2 (Homo sapiens, UniProt Q92769); experiment: HDAC isoform selectivity, HDAC2; assay type: biochemical; conditions: HDAC subtype panel
HDAC6 = molecular target: T1, HDAC6 (Homo sapiens, UniProt Q9UBN7); experiment: HDAC isoform selectivity, HDAC6; assay type: biochemical; conditions: HDAC subtype panel
T1 sequence (Q9UBN7 1-1215): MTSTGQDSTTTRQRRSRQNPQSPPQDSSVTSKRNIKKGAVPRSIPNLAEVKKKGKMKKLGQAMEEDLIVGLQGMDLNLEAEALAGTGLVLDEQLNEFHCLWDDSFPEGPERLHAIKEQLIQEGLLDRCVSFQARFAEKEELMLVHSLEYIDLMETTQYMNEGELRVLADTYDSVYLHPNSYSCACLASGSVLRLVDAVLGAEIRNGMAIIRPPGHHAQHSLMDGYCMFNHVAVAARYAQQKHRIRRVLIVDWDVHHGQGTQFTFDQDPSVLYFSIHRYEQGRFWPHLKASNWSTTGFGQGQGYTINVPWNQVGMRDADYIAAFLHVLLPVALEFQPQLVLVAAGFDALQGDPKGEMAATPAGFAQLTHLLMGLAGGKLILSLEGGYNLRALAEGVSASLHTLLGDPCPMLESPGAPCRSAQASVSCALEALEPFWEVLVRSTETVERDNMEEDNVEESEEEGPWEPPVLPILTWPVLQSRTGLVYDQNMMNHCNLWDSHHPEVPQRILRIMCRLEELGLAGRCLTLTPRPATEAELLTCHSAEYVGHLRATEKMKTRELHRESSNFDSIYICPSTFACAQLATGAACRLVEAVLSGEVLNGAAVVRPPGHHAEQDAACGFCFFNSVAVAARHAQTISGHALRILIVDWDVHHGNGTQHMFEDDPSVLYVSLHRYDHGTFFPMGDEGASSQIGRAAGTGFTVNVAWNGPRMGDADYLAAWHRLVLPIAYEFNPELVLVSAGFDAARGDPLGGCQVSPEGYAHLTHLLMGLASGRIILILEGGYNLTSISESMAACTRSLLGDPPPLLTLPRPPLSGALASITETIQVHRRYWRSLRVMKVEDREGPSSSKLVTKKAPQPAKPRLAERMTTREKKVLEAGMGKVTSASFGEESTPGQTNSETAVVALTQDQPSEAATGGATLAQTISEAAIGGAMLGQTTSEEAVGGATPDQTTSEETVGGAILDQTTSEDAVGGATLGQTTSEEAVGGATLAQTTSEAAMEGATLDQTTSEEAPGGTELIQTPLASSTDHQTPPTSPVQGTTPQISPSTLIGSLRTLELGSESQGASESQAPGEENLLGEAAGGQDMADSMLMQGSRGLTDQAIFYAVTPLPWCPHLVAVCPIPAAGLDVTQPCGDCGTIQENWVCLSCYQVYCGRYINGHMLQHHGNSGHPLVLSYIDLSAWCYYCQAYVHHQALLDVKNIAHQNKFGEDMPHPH

HDAC10 = molecular target: T2, HDAC10 (Homo sapiens, UniProt Q969S8); experiment: HDAC isoform selectivity, HDAC10; assay type: biochemical; conditions: HDAC subtype panel
T2 sequence (Q969S8 1-669): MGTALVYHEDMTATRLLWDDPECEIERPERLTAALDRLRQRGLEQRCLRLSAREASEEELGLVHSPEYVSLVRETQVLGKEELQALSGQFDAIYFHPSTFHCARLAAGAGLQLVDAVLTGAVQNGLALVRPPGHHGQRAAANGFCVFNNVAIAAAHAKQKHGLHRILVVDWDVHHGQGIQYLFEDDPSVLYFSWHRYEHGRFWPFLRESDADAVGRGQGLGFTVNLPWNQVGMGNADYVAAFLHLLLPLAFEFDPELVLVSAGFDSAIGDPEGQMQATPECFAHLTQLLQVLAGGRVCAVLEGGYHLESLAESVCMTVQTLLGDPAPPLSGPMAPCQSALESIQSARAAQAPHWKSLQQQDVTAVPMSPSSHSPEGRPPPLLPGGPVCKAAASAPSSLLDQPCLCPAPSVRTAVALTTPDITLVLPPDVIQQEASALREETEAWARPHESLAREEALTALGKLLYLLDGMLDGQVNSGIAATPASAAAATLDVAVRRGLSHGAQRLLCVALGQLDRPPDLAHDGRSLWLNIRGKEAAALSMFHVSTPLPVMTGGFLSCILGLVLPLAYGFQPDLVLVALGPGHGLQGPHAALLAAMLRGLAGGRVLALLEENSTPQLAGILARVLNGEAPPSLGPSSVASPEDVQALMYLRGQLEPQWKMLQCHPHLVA

MDM2, p53 in MCF-7 cells = experiment: Western blot, MDM2 and p53 protein level; assay type: cell-based, human; conditions: MCF-7, 24 h incubation
Experimental: The cells were collected and washed with cold PBS twice, then added the protease and phosphatase inhibitors contained lysis buffer. Total cell lysates were prepared in lysis RIPA buffer (Invitrogen, CA, USA) on ice for 30 min, followed by centrifugation at 12000 rpm for 10 min at 4°C. After collecting supernatant, protein concentration was determined by a BCA protein assay. The total proteins were loaded into the 10%-15% SDS-PAGE gel and separated by sodium dodecyl sulfate polyacrylamide gel electrophoresis (PAGE). After electrophoresis, the protein was transferred to the PVDF membranes and rinsed three times in PBST buffer for 10 min each time, then sealed with 5% BSA Buffer for 1h. The membranes were incubated at 4°C for 24 h with primary antibodies and washed with TBST three times. Then incubated at room temperature for 2 h with secondary antibodies (1:10,000). The incubated PVDF membranes were taken out and rinsed with TBST three times. The protein bands were visualized through enhanced chemiluminescence (ECL) WB substrate (Millipore, MA, USA) and analyzed by ChemiScope. The antibodies including p53, MDM2, H4, and GAPDH were purchased from Abcam (Cambridge, MA, USA).

A431 cells = experiment: MTT antiproliferative assay, A431; conditions: Homo sapiens, A-431, read-out: IC50 A431
Experimental: (§1) The cytotoxicity assay was performed with MTT method as previously described ([73], [88], [89]).

HDAC1 = HDAC1 (Homo sapiens, UniProt Q13547); experiment: HTRF enzyme inhibition assay, HDAC1
Chain of HDAC1 (Q13547 whole entry): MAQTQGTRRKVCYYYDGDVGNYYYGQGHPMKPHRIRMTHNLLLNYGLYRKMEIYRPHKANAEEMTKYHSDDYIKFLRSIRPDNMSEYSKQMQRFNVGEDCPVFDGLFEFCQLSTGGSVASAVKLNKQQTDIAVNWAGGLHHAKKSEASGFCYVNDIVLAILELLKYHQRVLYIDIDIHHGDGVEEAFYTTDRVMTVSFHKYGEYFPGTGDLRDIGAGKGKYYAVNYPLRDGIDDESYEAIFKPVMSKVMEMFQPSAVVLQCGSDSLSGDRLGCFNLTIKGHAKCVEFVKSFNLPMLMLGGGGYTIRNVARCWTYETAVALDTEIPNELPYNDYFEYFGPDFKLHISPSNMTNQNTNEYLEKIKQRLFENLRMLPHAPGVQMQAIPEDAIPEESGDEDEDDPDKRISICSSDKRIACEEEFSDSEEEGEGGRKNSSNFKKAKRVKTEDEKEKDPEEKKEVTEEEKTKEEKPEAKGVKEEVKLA
Experimental: The data obtained were processed by the ratio method, and the inhibition rates of MDM2 and HDAC1 were calculated. The detailed experimental procedures are according to the manufacturer’s protocols.

HCT116 cells = experiment: MTT antiproliferative assay, HCT116; conditions: Homo sapiens, HCT-116, read-out: IC50 HCT116
Experimental: as §1

Chain of HDAC2 (Q92769 whole entry, canonical isoform): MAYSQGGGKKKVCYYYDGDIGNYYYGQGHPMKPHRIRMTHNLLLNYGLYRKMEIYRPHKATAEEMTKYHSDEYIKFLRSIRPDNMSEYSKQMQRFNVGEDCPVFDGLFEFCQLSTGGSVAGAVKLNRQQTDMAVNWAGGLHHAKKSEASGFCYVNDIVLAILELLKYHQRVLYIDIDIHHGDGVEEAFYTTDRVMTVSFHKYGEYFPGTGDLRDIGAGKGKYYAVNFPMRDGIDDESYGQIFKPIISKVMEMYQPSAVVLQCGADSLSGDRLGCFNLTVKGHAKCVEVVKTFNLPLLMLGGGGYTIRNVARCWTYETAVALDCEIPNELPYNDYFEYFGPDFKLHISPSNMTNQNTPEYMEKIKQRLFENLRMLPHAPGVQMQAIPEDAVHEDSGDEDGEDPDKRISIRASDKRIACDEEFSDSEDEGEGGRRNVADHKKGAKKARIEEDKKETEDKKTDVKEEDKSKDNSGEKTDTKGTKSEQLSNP

`O=C(CCCCCCC(=O)N1CCC(C(=O)Nc2ccc([C@@H]3[C@H]4CSCN4[C@]4(C(=O)Nc5cc(Cl)ccc54)[C@H]3C(=O)c3ccccc3)cc2)CC1)NO` [compound 11b, N-(4-((3R,6'S,7'R,7a'S)-6'-benzoyl-6-chloro-2-oxo-1',6',7',7a'-tetrahydro-3'H-spiro[indoline-3,5'-pyrrolo[1,2-c]thiazol]-7'-yl)phenyl)-1-(8-(hydroxyamino)-8-oxooctanoyl)piperidine-4-carboxamide] gave an IC50 (HDAC2) of 0.064 ± 0.004 µM, an IC50 (HDAC6) of 0.12 ± 0.026 µM and an IC50 (HDAC10) of 1.49 ± 0.037 µM. For the same compound, the “protein level of MDM2 and p53 (western blot)” value (MDM2, p53 in MCF-7 cells) was “up-regulating the expression of p53; also recorded: increased the expression of p53; also recorded: dose-dependently increased the protein level of MDM2 as well as p53”, the IC50 (A431 cells) was 1.89 ± 0.88 µM and the IC50 (HDAC1) was 0.058 ± 0.005 µM. It also gave an inhibition at 1 µM (HDAC1; read-out: % enzyme inhibition HDAC) of 79% and an IC50 (HCT116 cells) of 2.54 ± 1.07 µM.
